The results in this text go back to patent US4329349A, “6-C1-4 Alkyl-7-phenyl or substituted phenyl-1,6-naphthyridine-5(6H)-ones” (Sandoz, Inc., priority 1980, dated 1982).

Read-outs that look alike come from different tables or passages of the source.

What all share (type): in vivo
One experiment relates to linguomandibular reflex. In words: Test D (Linguomandibular Reflex (LMR)), muscle relaxant. Particulars: Felis catus, iv, cats, alpha chloralose anesthesia; read-out: ED50 (dose that reduces the response by 50%). An excerpt:
(§1) The compounds of Formula I and the pharmaceutically acceptable acid addition salts thereof are useful for the treatment of inflammation in animals (e.g., mammals) as indicated by Test E and, with the exception of those wherein R2 is 4-NR5 R6 and R3 and R4 are hydrogen, as muscle relaxants in animals (e.g., mammals) as indicated by Tests A, B, C and D. The preferred compounds of Formula I and pharmaceutically acceptable acid addition salts set forth above are those that are preferred for muscle relaxation.
Test D (Linguomandibular Reflex (LMR)): The linguomandibular reflex is a polysynaptic reflex involving interneurons within the brain stem. Inhibition of the linguomandibular reflex has been correlated with central muscle relaxant activity. See Bhargava et al., Brit. J. Pharmacol. 25, 74-80 (1965).
Male cats weighing 2.0-3.0 kg. are utilized to study the effect of a drug on the linguomandibular reflex. […]
The head of the cat is rigidly fixed in a Kopf stereotaxic u-frame assembly allowing the lower jaw (mandible) to move freely. The movement of the lower jaw is recorded through a system of surgical thread, pulleys and a ft. […]
After consistent linguomandibular responses are obtained, the test drug (compound of Formula I in free base or pharmaceutically acceptable acid addition salt form) is administered intravenously at a dose of 2-50 mg./kg. body weight and its effect is recorded. […]

The test system of experiment [1] is mono (patellar)--and poly (flexor)--synaptic gross spinal reflexes. Put plainly: Test B (Gross Spinal Reflex), muscle relaxant. Particulars: Felis catus, iv, cats, alpha chloralose anesthesia, progressively accumulating doses; read-out: ED50 (dose that reduces the response by 50%).
Description: as §1
Test B (Gross Spinal Reflex): Male cats weighing 2.5-3.0 kg. are utilized to study the effects of drugs on the mono (patellar)--and poly (flexor)--synaptic gross spinal reflexes. A Grass Model 7 polygraph with two ft. 03 force displacement transducers and two low level D.C. pre-amplifiers is utilized to measure the flexor and patellar responses.
Anesthesia is induced with ether, followed by an i.v. injection of alpha chloralose dissolved in warm distilled water at a dose of 70 mg./kg. body weight. […]
A drill bit pin is inserted just behind the lateral epicondyle of the left femur. […] Contraction of the left leg is measured via a force displacement transducer. […]
A series of control responses is recorded prior to administration of the drug (compound of Formula I in free base or pharmaceutically acceptable acid addition salt form). […]

Experiment [2] deals with carrageenan-induced edema. Put plainly: Test E (Acute Carrageenan-Induced Edema), anti-inflammatory. The conditions noted are these: Rattus norvegicus, po, 3 h; p.o., rats, one hour prior to carrageenan; edema measured three hours after carrageenan.
Description: as §1
Test E (Acute Carrageenan-Induced Edema): Rats are orally dosed (10-200 mg./kg. body weight) with the test drug (compound of Formula I in free base or pharmaceutically acceptable acid addition salt form) one hour prior to administration of carrageenan; edema is measured three hours subsequent to the carrageenan administration. See Winter, Proc. Soc. Exp. Biol. 111, 544 (1962).

Experiment [3] deals with male Royal Hart mice (rotarod time). Put plainly: Test A (Rotarod Test), muscle relaxant. The conditions noted are these: for ED50: Mus musculus, tested 30 and 60 minutes after administration, read-out: ED50 (dose which decreases the rotarod time by 50%); for percent change in rotarod time: 200 mg./kg. p.o., vs control.
Description: as §1
Test A (Rotarod Test): A modification of the rotarod method of Dunham et al., J. Am. Pharm. Assoc. 46, 208 (1957), is used. Groups of 5 male Royal Hart mice weighing 20-25 g. are trained to ride a rod revolving at 15 r.p.m. covered with corrugated paper for 60-90 seconds. Ability of the mice to remain on the rod is tested again at 30 minutes and 60 minutes after intraperitoneal or oral administration of the drug (the compound of Formula I in free base or pharmaceutically acceptable acid addition salt form) at a dose of 20-400 mg./kg. body weight or saline. Rotarod times for control and treated groups are compared to determine the percent change. The ED50 is the dose of the drug which decreases the rotarod time by 50% or is calculated by interpolation.

Regarding `Cn1c(-c2ccccc2Cl)cc2ncccc2c1=O` [Example 4, 7-(2'-Chlorophenyl)-6-methyl-1,6-naphthyridine-5(6H)-one], the 50% effective dose (ED50) in the experiment with linguomandibular reflex is 4.6 mg/kg; in experiment [1] it was 1.6 mg/kg; in experiment [2], 29 mg/kg; in experiment [3] (ip), 49.3 mg/kg; in experiment [3] (po), 39.1 mg/kg.

`Cc1ccccc1-c1cc2ncccc2c(=O)n1C` [Example 6, 6-Methyl-7-(2'-methylphenyl)-1,6-naphthyridine-5-(6H)-one]: the 50% effective dose (ED50) in experiment [3] (ip) was determined as 36.8 mg/kg; in experiment [3] (po), 43.5 mg/kg.

Turning to `CN(C)c1cccc(-c2cc3ncccc3c(=O)n2C)c1` [Example 8, 7-(3'-Dimethylaminophenyl)-6-methyl-1,6-naphthyridine-5(6H)-one], in experiment [3], the “percent change in rotarod time” value was 47.3%. The median effective dose (ED50) in experiment [3] (ip) came to 141 mg/kg.

In the case of `Cn1c(-c2ccc(Cl)cc2)cc2ncccc2c1=O` [Example 11, 7-(4'-Chlorophenyl)-6-methyl-1,6-naphthyridine-5-(6H)-one], the “percent change in rotarod time” value in experiment [3] was 32%. Moreover, the median effective dose (ED50) in experiment [3] (ip) came to 134 mg/kg.
